Source: US5935982A, “Methods of treating retroviral infection and compounds useful therefor” (The University of North Carolina at Chapel Hill, priority 1997, dated 1999)

Columns and labels:
HIV-1 integrase = target: T1, HIV-1 integrase (Human immunodeficiency virus type 1 group M subtype B, UniProt P04585); experiment: Integrase inhibition assay (site-specific cleavage/joining of labeled oligonucleotide substrate); assay type: biochemical, HIV-1 (HXB2 clone); conditions: initial screening at 10 μM; assay in duplicate
T1 construct: using the integrase coding domain from the HXB2 clone; made in house; host or cells: E. coli
Experimental: Purification of Integrase Protein. Integrase was overproduced in E. coli from an inducible plasmid containing the integrase sequence under control of a lacI-regulated T7 polymerase using the integrase coding domain from the HXB2 clone of HIV-1 DNA (L. Ratner et al, AIDS Res. Hum. Retroviruses 3:57 (1987)), pT7fl1-IN. A one liter culture at an O.D. of 0.6 was induced by the addition of IPTG to 0.5 mM. After three hours, the cells were harvested by centrifugation and the pellets were stored at -70° C.
The integrase protein was purified by a modification of the method of Sherman and Fyfe, Proc. Natl. Acad. Sci. USA 87:5119 (1990). The cells were lysed by thawing in a buffer (50 mM Tris-HCl pH 7.5, 5 mM dithiothreitol, 1 mM EDTA, 1 mg/ml lysozyme) on ice at 6 ml/g bacterial pellet for 30 minutes, and then incubating at 37° C. for 5 minutes. The lysate was centrifuged at 12,000×g for one hour. The pellets were resuspended in 50 mM Tris-HCl, pH 7.5, 1 mM dithiothreitol, 1 mM EDTA, 1M NaCl (4 ml/g original bacteria). The homogenate was stirred for 30 minutes at 4° C. and recentrifuged for 30 minutes at 12,000×g.
The supernatant was made 0.8M in ammonium sulfate by the slow addition of powder with stirring over a 30 minute period. The extract was then centrifuged to remove any precipitate and applied to a phenyl sepharose column. After a 50 ml wash with high salt buffer (50 mM Tris-HCl, 1 mM EDTA, 5 mM DTT, 2M NaCl), the protein was eluted with a gradient from high salt to O salt buffer containing 10% (weight/vol) glycerol and further purified through a G75 Sephadex column to remove background nuclease. A one liter culture generates enough integrase activity to perform over a thousand drug inhibition assays. […]
Cleavage of specific sites is assessed as described in Sherman et al., supra, except that the assay buffer was the same as that reported by Chow et al, Science 255:723 (1992). The substrate employed is the same as that described for use in the dumbell assay described in Chow et al., J. Virol. 68:7869 (1994), the disclosure of which is incoroprated herein by reference in its entirety. Essentially, the assay is performed with an oligonucleotide of 31 nucleotides that is self-annealing to form a dumbell shape with a nick therein. This substrate mimics the integrated virus and is specifically recognized by integrase to release 2 fragments. When the substrate is end-labeled with γ^32 P-ATP and T4 polynucleotide kinase, and treated with integrase protein, the product is site-specific cleavage of the substrate to form a very different molecular weight when electrophoresed on a denaturing polyacrylamide gel. This allows the reaction to be more easily quantitated with the phosphorimager. This assay represents the step of the integrase reaction where integrase completes its action. The IC50 value reported in Table 1 is generated by regression analysis of the percent control reaction with integrase at various drug concentrations. Initial screening of the compounds was performed at a constant 10 μM concentration for each test compound. Those with activity at 10 μM, were then used to identify IC50 values.
The other assay used consisted of the single 20 mer oligonucleotides corresponding to either the U5 or U3 ends of HIV-1 are end-labeled with ^32 P, annealed with its complement, purified, and used under the same conditions as described above for the endonuclease assay. Reaction products are denatured with formamide, electrophoresed through 20% denaturing polyacrylamide gels and visualized by autoradiography. Both cleavage and ligation activity can be assessed from one gel. To assess the ligation activity alone, "precleaved" substrate that had the -2 cleavage artificially produced by using a radiolabelled 18 mer oligonucleotide was also used for some experiments
Testing as Integrase Inhibitors. Integrase overproduced in E. coli was purified as described above in accordance with Sherman et al, supra, and used in drug inhibition assays. […]

HIV-1 = HIV-1 inhibition assay in magic (magi) cells, β-galactosidase expressing cells counted; assay type: cell-based, HIV-1 strain HXB2; conditions: for IC50: Human immunodeficiency virus 1, MAGI, magic cells, HIV-1, drug pretreatment 4 hours, fixed two days later, read-out: Anti-HIV IC50; for Index TD50/IC50: ratio of toxicity TD50 to anti-HIV IC50
Experimental: (§1) Cell lines used were CEM cells, a human T-cell lymphona cell line, A. Kaplan et al, J. Virol. 67:4050-5 (1993), and Magic cells, J. Kimpton et al, J. Virol. 66:2232 (1992). The CEM cells were grown in RPMI-1640 medium supplemented with 5% FCS. The Magic Cells, a HELA derivative, were grown in DMEM/H supplemented with 5% FCS, G418 (20 mg/ml) and Hygromycin (10 mg/ml). The HIV isolate was strain HXB2, originally from Lee Ratner in the laboratory of Robert Gallo at the National Institutes of Health.
The magi cell assay described by Kimpton et al., supra, was used as described. This assay identifies individual cells infected with HIV-1 by the expression of tat, which transactivates an endogenous copy of the HIV-1 LTR linked to the lac2 reporter gene after integration, inducing β-galactosidase expression when Xgal is added to the cell medium. Any cell with integrated HIV-1 will turn blue. Thus, this assay provides a convenient way to determine the effect of HIV inhibitors at any early step up through the expression of tat, including the inhibition of integration.
The magic cells are plated in twelve-well plates one day prior to infection. The standard assay involves infection with approximately 200 infectious units of HIV-1. This gives an approximately 20 to 1 ratio of signal to background and sufficient numbers of infectious events to quantitate dim effects. The cells are pretreated with drug for 4 hours prior to virus infection, and virus adsorption takes place for 1 hour. The cells are washed with plain medium, and then medium with inhibitor is placed back on the cells. Two days later the cells are fixed after integration with Xgal the indicator reagent for β-galactosidase production. The number of β-galactosidase expressing cells are quantitated by light microscopy.
The results of comparisons of infectious units with or without various concentrations of the bis-benzimididazoles drugs in the magic cell assay are expressed as IC50 values and are compiled in Table 2 above. Note that the best anti-HIV compounds were generally also the best integrase inhibitors.

in vitro = assay type: cell-based; conditions: human, cem and magic cells
Experimental: as §1
Three different toxicity tests were performed on the cell lines used to measure virus infectivity.
The initial test for toxicity utilized the XTT Assay as described by Weislow et al, J. Natl. Cancer Inst. 81:577 (1989). This is the standard assay used originally to measure cell toxicity by potential reverse transcriptase inhibitors. Briefly, cells were grown to cells/ml and drug dilutions were added to the medium. After two days incubation, XTT reagent is added and incubation is continued for 4 hours at 37° C. Following incubation, the plates are read at 450 minus 650 nm (the 650 value is the backround value which is automatically subtracted) with controls of media+XTT reagent without cells, and cells+media without reagent. Also a control of cells+media+XTT reagent was run for each plate. Medium without phenol red was employed to minimize background color as the XTT reagent goes from colorless (unreduced) to orange (reduced). The XTT reagent was freshly prepared on the day of assay as follows: 1 mg/ml of XTT in 0.01M phenazine methosulfate. The phenazine methosulfate solution was prepared ahead of time and stored at 4° C. in a dark bottle. The XTT reagent is added to the microtiter wells at 24 ul per 100 ul of medium. The O.D. was measured on a Vmax plate reader from Molecular Devices Co. with data reduction. Results are expressed as percent of untreated controls. The least toxic compounds were Compounds A, B, and F with toxicities values at 500 μM or greater.
Next, a plating efficiency test measured the ability of the cell to grow after incubation with drug for a number of days. Magic cells were grown from an initial cell concentration of 0.8×104 with or without various concentrations of test compound for 6 days. Plating ability of the cells was assessed by plating dilutions of each culture on plastic. Colony forming units were determined after growth for two to four days by counting colonies after staining the plates. Each sample was plated in duplicate and the colony number averaged.
The third test for cell toxicity assessed growth rate in the presence of the test compound versus a control culture. Magic cells were grown over a period of 15 days with or without various dilutions of test compound. Aliquots were removed every other day and the cells were counted in a hemocytometer.

N=C(N)c1ccc2nc(-c3ccc(-c4nc5ccc(C(=N)N)cc5[nH]4)o3)[nH]c2c1 [S-14]
IC50 (HIV-1 integrase): 0.9 µM | IC50 (HIV-1): 26.7 µM | Index TD50/IC50 (HIV-1): 3.05 | CC50 (in vitro): 81.5 µM

Cn1c(-c2nc3ccc(C(=N)N)cc3[nH]2)ccc1-c1nc2ccc(C(=N)N)cc2[nH]1 [S-7]
IC50 (HIV-1 integrase): 0.85 µM | CC50 (in vitro): 90.3 µM

c1cc2nc(-c3ccc(-c4nc5ccc(C6=NCCN6)cc5[nH]4)o3)[nH]c2cc1C1=NCCN1 [S-15]
IC50 (HIV-1 integrase): 0.6 µM | IC50 (HIV-1): 8.01 µM | Index TD50/IC50 (HIV-1): 5.23 | CC50 (in vitro): 41.9 µM

c1cc2[nH]c(-c3ccc(-c4nc5cc(C6=NCCN6)ccc5[nH]4)[nH]3)nc2cc1C1=NCCN1 [S-9]
IC50 (HIV-1 integrase): > 10 µM | CC50 (in vitro): 213 µM

Cn1c(-c2nc3ccc(C(=N)NC4CCCC4)cc3[nH]2)ccc1-c1nc2ccc(C(=N)NC3CCCC3)cc2[nH]1 [S-11]
IC50 (HIV-1 integrase): > 10 µM | CC50 (in vitro): 732 µM

c1cc(-c2nc3cc(C4=NCCN4)ccc3[nH]2)cc(-c2nc3cc(C4=NCCN4)ccc3[nH]2)c1 [S-2]
IC50 (HIV-1 integrase): > 10 µM

N=C(NC1CCCC1)c1ccc2nc(-c3ccc(-c4nc5ccc(C(=N)NC6CCCC6)cc5[nH]4)[nH]3)[nH]c2c1 [S-13]
IC50 (HIV-1 integrase): < 5 µM | CC50 (in vitro): 78.2 µM

N=C(N)c1ccc2nc(-c3ccc(-c4nc5ccc(C(=N)N)cc5[nH]4)[nH]3)[nH]c2c1 [S-8]
IC50 (HIV-1 integrase): 0.5 µM

N=C(N)c1ccc2nc(-c3ccc4oc(-c5nc6ccc(C(=N)N)cc6[nH]5)cc4c3)[nH]c2c1 [S-5]
IC50 (HIV-1 integrase): < 10 µM | IC50 (HIV-1): 19.8 µM

N=C(N)c1ccc2nc(-c3cccc(-c4nc5ccc(C(=N)N)cc5[nH]4)c3)[nH]c2c1 [S-1]
IC50 (HIV-1 integrase): 1 µM | CC50 (in vitro): 40 µM

CC(C)NC(=N)c1ccc2nc(-c3ccc4c(c3)Cc3cc(-c5nc6ccc(C(=N)NC(C)C)cc6[nH]5)ccc3-4)[nH]c2c1 [S-3]
IC50 (HIV-1 integrase): < 10 µM

CC(C)NC(=N)c1ccc2nc(-c3ccc(-c4nc5ccc(C(=N)NC(C)C)cc5[nH]4)o3)[nH]c2c1 [S-16]
IC50 (HIV-1 integrase): < 10 µM | IC50 (HIV-1): 1.39 µM | Index TD50/IC50 (HIV-1): 170.88 | CC50 (in vitro): 238 µM

CC(C)NC(=N)c1ccc2nc(-c3ccc(-c4nc5ccc(C(=N)NC(C)C)cc5[nH]4)n3C)[nH]c2c1 [S-12]
IC50 (HIV-1 integrase): < 10 µM | CC50 (in vitro): 289 µM

N=C(NC1CCCC1)c1ccc2nc(-c3ccc4oc(-c5nc6ccc(C(=N)NC7CCCC7)cc6[nH]5)cc4c3)[nH]c2c1 [S-6]
IC50 (HIV-1 integrase): 1.4 µM

c1cnc(-c2ccc3nc(-c4ccc(-c5nc6ccc(-c7ncccn7)cc6[nH]5)[nH]4)[nH]c3c2)nc1 [S-10]
IC50 (HIV-1 integrase): < 10 µM

CC(C)NC(=N)c1ccc2nc(-c3cnc(-c4nc5ccc(C(=N)NC(C)C)cc5[nH]4)o3)[nH]c2c1 [S-4]
IC50 (HIV-1 integrase): < 10 µM
